Results on 73 compounds are retold here after PubChem BioAssay AID179 (DTP/NCI, 2004).

The assay deals with CEM cells HIV-1 protection, formazan growth assay. In words: NCI AIDS Antiviral Assay. The following applies: for IC50: measured here: growth of uninfected CEM cells. A digest of the protocol:
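Screen of anti-HIV-1 activity in human CEM cells using a formazan-based growth measurement at five drug concentrations. Hits with 50% or greater protection were repeated, and confirmation required reproducible complete protection.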

Activity calls are given as the source filed them.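 How the source made its calls: active means compounds giving half or more protection of infected cells from virus-caused growth loss, again on retest; inactive means the rest.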

As a reminder, the EC50 is the concentration at which the effect is half-maximal. In general, IC50 refers to the midpoint of a concentration-inhibition curve. A lower IC50 goes with higher potency. Take `C=C1C[C@]2(C)c3ccccc3NC(=O)[C@H]12`: the EC50 was 162 µM and the IC50 is above 200 µM.

With `COc1ccc2c(c1)C(=O)C13CC(C(=O)O)C(OC(C)=O)(CCC21)C3` (centres undefined), the EC50 is above 89.1 µM and the concentration for half-maximal inhibition (IC50) was above 89.1 µM.

For `O=C1c2cc3c(cc2CC1Cc1ccc2c(c1)CCC2)CCC3` (centres undefined), the EC50 is above 200 µM and the IC50 came out at 91.2 µM.

For `C=C1c2cc3c(cc2CC12Cc1cc4c(cc1C2=O)CCC4)CCC3` (centres undefined), the EC50 was above 200 µM and the IC50 is above 200 µM.

As for `O=C1C(=Cc2ccc(Cl)c(Cl)c2)C([O-])=C([P+](c2ccccc2)(c2ccccc2)c2ccccc2)C([O-])=C1[P+](c1ccccc1)(c1ccccc1)c1ccccc1`, the EC50 is above 100 µM and the concentration for half-maximal inhibition (IC50) stood at 1.23 µM.

As for `O=C1OC(=O)C2C1C(c1ccccc1)N1C3C(=O)OC(=O)C3C(c3ccccc3)N21` (centres undefined), the result was inactive.

Consider `O=C(O)C1CCC(c2ccc(Cl)cc2Cl)=N1` (centres undefined), for which the EC50 was above 200 µM and the IC50 was above 200 µM.

Take `CC(=O)OCC12C(=O)C[C@@H](C)C3(CC(c4ccoc4)OC3=O)C1CCC(OC(C)=O)C21CO1` (some centres undefined): the EC50 is above 200 µM and the IC50 turned out to be 135 µM.

With `C[C@]12Cc3conc3C(O)=C1CC[C@@H]1C2CC[C@@]2(C)C1CC[C@]2(C)O` (some centres undefined), the result was inactive.

On to `O=C1CC2CCCC(C1)S2=O` (centres undefined), for which the EC50 is above 1450 µM and the IC50 is above 1450 µM.

As for `C=CCCCCC1CCC2CCC(CCCCC=C)N12` (centres undefined), the EC50 was above 95.5 µM and the IC50 was 79.4 µM.

In the case of `COC(=O)c1c(C)cccc1C1CN=NC12Cc1ccc(C)c(C)c1C2=O` (centres undefined), the EC50 was above 200 µM and the IC50 was determined as 15.1 µM.

As for `CCCCCCCCCCCCCCOCCS(=O)(=O)O`, the EC50 is above 200 µM and the IC50 was 52.5 µM.

For `O=C(O)c1cc([N+](=O)[O-])cc([N+](=O)[O-])c1/C=C/n1c(=S)[nH]c2ccc([N+](=O)[O-])cc21`, the EC50 was above 100 µM and the IC50 amounted to 91.2 µM.

For the compound `O=c1[nH]nc(-c2ccccc2)n1/N=C/c1ccncc1`, the EC50 was above 200 µM and the IC50 was 52.5 µM.

Turning to `CC(NC(=O)C(CC(=O)OCc1ccccc1)NC(=O)OCc1ccccc1)c1ccccc1` (centres undefined), the EC50 is above 200 µM and the IC50 was above 200 µM.

For `CCCNC(=O)Sc1ccccc1C(=O)N[C@@H](C)C(N)=O`, the concentration for a half-maximal effect (EC50) is above 4.17 µM and the concentration for half-maximal inhibition (IC50) stood at 1.41 µM.

Turning to `CC1(C)C(=O)C2(C#N)CCC1C2` (centres undefined), the EC50 is above 200 µM and the half-maximal inhibitory concentration (IC50) was above 200 µM.

For the compound `OC1[C@H](O)CN(OCc2ccccc2)C[C@@H]1O` (some centres undefined), the EC50 was above 200 µM and the IC50 was above 200 µM.

As for `COC1(OC)CC2CCCCC2=C(C)N1S(=O)(=O)c1ccccc1` (centres undefined), the outcome was inactive.

Regarding `O=C(NCCN1CCOCC1)c1cn2c(ccc3sc4ccccc4c(=O)c32)n1`, the EC50 is above 200 µM and the IC50 came out at 3.55 µM.

Consider `O=C1NC2=C(CCCCC/C2=N\O)C12CCCCCC2`, for which the result was inactive.

Take `CC1(c2ccccc2)N=C(C(N)=O)c2[nH]cnc2N1` (centres undefined): the EC50 is above 200 µM and the IC50 is above 200 µM.

Turning to `O=C(O)CCCc1ccc(N(CCCl)CCCl)cc1`, the EC50 is above 200 µM and the IC50 turned out to be 14.8 µM.

As to `CCc1n[nH]c(=S)n1/N=C/c1ccc(-c2ccc([N+](=O)[O-])cc2)o1`, the EC50 is above 11 µM and the IC50 was above 11 µM.

Turning to `Cc1c(Cl)ccc2[s+]snc12`, the result was inactive.

As for `O=c1c(SCc2cccc(F)c2)c(SCc2cccc(F)c2)cnn1-c1ccccc1`, the EC50 was above 30.2 µM and the concentration for half-maximal inhibition (IC50) amounted to 21.9 µM.

Take `O=C1CC[C@@]23CC(=O)O[C@@H]2CCCC3C1` (some centres undefined): the outcome was inactive.

Regarding `CCCCI(O)OS(=O)(=O)c1ccc(C)cc1`, the result was inactive.

`Cc1nn(C(=O)c2ccc(Cl)cc2)c2c1C(c1ccccc1[N+](=O)[O-])SC(N)=N2` (centres undefined): the EC50 was above 200 µM and the IC50 came to 105 µM.

Consider `O=C(CCCN1CC=C(n2c(=O)[nH]c3ccccc32)CC1)c1cccs1`, for which the EC50 was above 200 µM and the IC50 is 120 µM.

In the case of `CCOc1ccccc1C1N2CCN(CC2)C(c2ccccc2OCC)N2CCN1CC2` (centres undefined), the outcome was inactive.

As to `O=C(C=P(c1ccccc1)(c1ccccc1)c1ccccc1)C1(C(=O)C=P(c2ccccc2)(c2ccccc2)c2ccccc2)CC1`, the EC50 was above 200 µM and the IC50 is 9.55 µM.

In the case of `NCCCNCCS`, the EC50 is above 589 µM and the IC50 was 30.2 µM.

Take `O=c1n(-c2ccccc2)c(=O)n2n1C1C3C4C5C3C2C5(F)C41` (centres undefined): the EC50 is above 200 µM and the IC50 is above 200 µM.

Consider `CC(=O)Nc1ccc(/C=C(\C#N)c2ccccc2)cc1`, for which the EC50 was above 200 µM and the IC50 is above 200 µM.

For `CCCCCCCCCCCCCCCC(=O)Nc1ccn(C2CSC(COP(=O)(O)OC3CC(n4ccc(NC(=O)CCCCCCCCCCCCCCC)nc4=O)OC3CO)O2)c(=O)n1` (centres undefined), the EC50 was 9.55 µM and the IC50 is above 200 µM.

Regarding `C[C@@H](COCP(=O)(O)O)n1cnc2c(N)ncnc21`, the EC50 was above 200 µM and the IC50 is above 200 µM.

On to `O=C1CC2(CCN(Cc3ccccc3)CC2)CC(=O)N1`, for which the EC50 was above 200 µM and the IC50 is above 200 µM.

`CN1CCN(C)C12C=CC=CC21CC1`: the outcome was inactive.

As to `NC1=CN(CCCO)C2=N/C(=C\c3ccccc3)C(=O)N12`, the EC50 is above 200 µM and the IC50 was above 200 µM.

Turning to `Cn1c(=O)c2c(nc3sc4ccccc4c(=O)n32)n(C)c1=O`, the EC50 was above 151 µM and the IC50 is above 151 µM.

Regarding `C(=C\c1cc(CCc2nc3ccccc3[nH]2)[nH]n1)/c1ccccc1`, the EC50 is above 83.2 µM and the half-maximal inhibitory concentration (IC50) was above 83.2 µM.

For `Cc1c(O)ccc2c(O)c(NC(=O)c3ccc4c(c3)CCC(C)(C)O4)c(=O)oc12`, the EC50 was above 200 µM and the IC50 worked out at 83.2 µM.

`O=C1OC(c2ccccc2)=N/C1=C/C=C/c1ccco1`: the result was inactive.

On to `O=C1/C(=C/c2ccc(OC(=O)c3ccc(Cl)cc3)cc2)CCC/C1=C\c1ccc(OC(=O)c2ccc(Cl)cc2)cc1`, for which the EC50 was above 100 µM and the IC50 was above 100 µM.

In the case of `CC1(C)Oc2ccc3ccc(=S)oc3c2[C@@H](OC(=O)C23CCC(C)(C(=O)O2)C3(C)C)[C@H]1OC(=O)C12CCC(C)(C(=O)O1)C2(C)C` (some centres undefined), the EC50 was 0.525 µM and the IC50 was found to be 5.62 µM.

For the compound `CC1(C(=O)O)CC(C(=O)O)=Nn2c3ccccc3c3cccc1c32` (centres undefined), the EC50 is above 324 µM and the IC50 was above 324 µM.

In the case of `CCOC(=O)C1=C(C)N(C2OC(COC(=O)c3ccccc3)C(OC(=O)c3ccccc3)C2OC(=O)c2ccccc2)C(=S)NC1c1ccccc1` (centres undefined), the EC50 was above 50.1 µM and the IC50 is above 50.1 µM.

In the case of `O=S(Nc1ccccc1)c1ccccc1Oc1ccccc1` (centres undefined), the result was inactive.

For `COc1cc2ccc3c4cc(OC)c(OC(C)C)cc4c[n+](C)c3c2cc1OC`, the EC50 was above 178 µM and the IC50 came out at 174 µM.

In the case of `CCOC(=O)C1=CNC(C(=O)OCC)C1c1cccn1-c1ccccc1` (centres undefined), the EC50 was above 200 µM and the IC50 amounted to 36.3 µM.

`Nc1ncnc2c1ncn2[C@H]1C(CO)CC1(F)F` (some centres undefined): the EC50 is above 182 µM and the IC50 was above 182 µM.

On to `CC(=O)OC1C2CCC1C1C2N=NN1c1ccc([N+](=O)[O-])cc1` (centres undefined), for which the EC50 was above 151 µM and the IC50 is above 151 µM.

Take `CCCc1n[nH]c(=O)n1N1C(=O)C=CC1=O`: the EC50 was above 200 µM and the IC50 was above 200 µM.

In the case of `COC(=O)c1c2c(cc3c1CC1(Cc4cc5c(c(C)c4C1)CCC5)C3)CCC2` (centres undefined), the EC50 was above 200 µM and the IC50 was above 200 µM.

In the case of `N#Cc1c2c(c(N)oc1=O)C(c1ccccc1)CC(=O)N2` (centres undefined), the EC50 is above 200 µM and the IC50 is above 200 µM.

`c1ccc(OCc2nnc(CCCCCCCCc3nnc(COc4ccccc4)o3)o2)cc1`: the EC50 is above 200 µM and the IC50 was above 200 µM.

With `Clc1cnc2cccc3c2c1C=CN3`, the EC50 is above 129 µM and the IC50 turned out to be 52.5 µM.

Turning to `CCOC(=O)NC(=S)NN(C)C1=NCC(C)(C)S1`, the EC50 is above 200 µM and the IC50 is above 200 µM.

With `CSc1nc(C)c2c(n1)N(c1ccc(Cl)cc1)CC2`, the EC50 was above 200 µM and the IC50 is above 200 µM.

As for `N#Cc1ccccc1SSc1ccccc1C#N`, the EC50 was above 200 µM and the IC50 turned out to be 11.7 µM.

Take `CC(=O)Oc1ccc(/C=C/C(=O)NCCOC(=O)/C=C/c2ccc(OC(C)=O)c(OC(C)=O)c2)cc1OC(C)=O`: the EC50 was above 100 µM and the 50% inhibitory concentration (IC50) was found to be 15.1 µM.

As to `COc1cc(/C=C2/CCS(=O)(=O)c3ccc(C)cc3C2=O)cc(OC)c1OC`, the EC50 is above 200 µM and the IC50 came out at 3.72 µM.

With `Cc1ccc(-n2cnc(C(=N)C#N)c2N)cc1`, the EC50 was above 200 µM and the IC50 amounted to 123 µM.

For `CC#CC(O)(C(=O)OC1CC2CCC(C1)N2C)C1CCCC1` (centres undefined), the EC50 was above 200 µM and the IC50 was above 200 µM.

Consider `O=Nc1c(O)cc(O)c2ccccc12`, for which the outcome was inactive.

For the compound `CCOC(=O)C(NC(=O)c1ccccc1)(Nc1ccc(Cl)cc1C(F)(F)F)C(F)(F)F` (centres undefined), the EC50 was above 200 µM and the half-inhibitory concentration (IC50) is 3.55 µM.

With `FC(F)(F)c1cccc(C=NC23CC4CC(CC(C4)C2)C3)c1`, the EC50 was above 17 µM and the IC50 is above 17 µM.

Regarding `CCN(CC)CCCNc1ncc(C)c2c1c1ccc3c(O)cccc3c1n2C`, the EC50 is above 13.2 µM and the half-inhibitory concentration (IC50) turned out to be 0.24 µM.

Regarding `CC(=O)Nc1ncc2ccccc2c1-c1ccc(NC(=O)CN(CCO)CCO)cc1`, the EC50 is above 200 µM and the IC50 was above 200 µM.

As to `COC1/C=C\OC2(C)Oc3c(C)c(O)c4c(O)c(c(/C=N\OC(C(=O)O)C(C)C)c(O)c4c3C2=O)NC(=O)/C(C)=C\C=C/C(C)C(O)C(C)C(O)C(C)C(OC(C)=O)C1C` (centres undefined), the EC50 was above 100 µM and the IC50 was 40.7 µM.

With `CN1CCN(c2cc3c(cc2F)c(=O)c(C(=O)O)cn3C2CC2)CC1CC#N` (centres undefined), the EC50 was above 200 µM and the IC50 was determined as 148 µM.
